In patent US5571820A, “Heterocyclic compound” (Taisho Pharmaceutical Co., Ltd., priority 1992, dated 1996):

Key:
serotonin 4 receptor = molecular target: T1, serotonin 4 receptor (Cavia porcellus, UniProt O70528); assay: Serotonin 4 receptor stimulating activity: twitch responses of electrically stimulated ileum longitudinal muscle strips; format: cell-based, guinea pig (Hartley)
T1 construct: from tissue; host or cells: ileum longitudinal muscle strips of Hartley guinea pig
Source text: Experiment 1. Serotonin 4 Receptor Stimulating Activity Compounds Tested
Twitch responses were examined in longitudinal muscle strips of guinea pig by a modification of the method described in The Journal of Pharmacology and Experimental Therapeutics, 252, 1378, 1990.
From Hartley guinea pigs, a section of ileum 25 cm in length and proximal to the ileocecal junction was removed. The longitudinal muscle strips obtained from two segments of ileum about 4 cm each in length were used for this experiment. The longitudinal muscle strips were suspended in Krebs' solution at 32° to 34° C. and bubbled with 95% O2 and 5% CO2 under a load of about 0.8 g. Twitch responses were recorded under electrical stimulation of 0.2 Hz, 1 msec pulse duration, using force displacement transducers. The longitudinal muscle strips, stimulated at supramaximal voltage, were allowed to equilibrate for about an hour. […] The test was carried out by exposing the strips to cumulative additions of agonist at least at 45-minute intervals.

gastric motility = assay: Activity on gastric motility in rat (balloon in stomach, conscious); format: in vivo, male Wistar rats; conditions: for Contraction frequency (% of value prior to administration) / Motility index (% of value prior to administration): 1 mg/kg i.p.
Procedure: Experiment 2. Activity on Gastric Motility in Rat Male Wistar rats weighing 250 to 350 g were fasted for 18 hours and then provided for experiment. The abdominal cavity was opened under ether anesthesia and a rubber balloon was inserted into the stomach via the forestomach. A cannula for administering a drug was put in the peritoneal cavity. After recovery from the anesthesia, the balloon was connected to low pressure transducers to record gastric motility in the conscious state. The compound of the present invention was suspended in physiological saline and the suspension was intraperitoneally administered. Contraction frequency and motility index are shown in terms of a proportion (%) of a mean value calculated for 15 minutes to a value prior to administration (0 minute). The value for 0 minute was made a mean value for 30 minutes prior to the administration.

[1] = test system: gastrointestinal tract motor action; assay: Activity on gastrointestinal motor in dogs (strain gauge force transducers, conscious); format: in vivo, Beagle dogs of both sexes; conditions: for Motility index (% of value prior to administration): gastric motor action after feeding
Procedure: Experiment 3. Activity on Gastrointestinal Motor in Dogs The activity was determined by a modification of the method described in Gastroenterologia Japonica, 12, 275, 1977. Beagle dogs of both sexes weighing 9 to 15 kg were anesthetized with sodium pentobarbital and strain gauge force transducers were sutured on five (5) portions, i.e., for determining antral, duodenum, jejunal, ileal and colonal motor responses. A cannula for administering a drug was mounted persistently into the jugular vein. After recovery of the surgery, motor responses at those portions on the gastrointestinal tract in both during a fasting period and after feeding were determined in the conscious dogs. The compound of the present invention was administered by dissolving the compound in 5% lactate saline aqueous solution for intravenous injection and for oral administration by suspending the compound in 5% gum arabic aqueous solution. The motor index is shown in terms of a proportion (%) of a mean value calculated for 15 minutes to a value prior to administration (0 minute). The value for 0 minute was made a mean value for 30 minutes prior to the administration. Results

gastric emptying = assay: Activity on gastric emptying in rat (glass spheroids); format: in vivo, male Wistar rats
Procedure: Experiment 4. Activity on Gastric Emptying in Rat The activity was investigated by a modification of the method described in British Journal of Pharmacology, 91, 263, 1987. Male Wistar rats weighing 170 to 220 g were used which were deprived of food for 24 hours. Glass spheroids of 500 mg/ml were orally administered to the animal in a dose of 1 ml 30 minutes after subcutaneous administration or 60 minutes after oral administration, of drugs. The glass spheroids remained in the stomach were recovered and their weight was measured to determine gastric emptying to control motility. The compound of the present invention was suspended in physiological saline and the resulting suspension was administered.

[2] = Mouse single administration (acute toxicity); format: in vivo; conditions: single oral administration
Source text: Toxicity of the compound represented by formula (1) which is the effective ingredient of the pharmaceutical composition of the present invention was examined in terms of toxicity by mouse single administration (acute toxicity).

[3] = Toxicity on consecutive 14-day oral administration in rat; format: in vivo, male Wistar rats
Procedure: Experiment 6. Toxicity on Consecutive 14-day Oral Administration in Rat
Toxicity of consecutive oral administration was investigated by oral administration of male Wistar rats of 5 weeks age, weighing 124 to 140 g and seven rats forming one group, orally received the compound of the present invention for 14 consecutive days in a daily dose of 100 mg/kg or 250 mg/kg once a day. During the course of administration, general conditions were observed and the body weight was measured. At the time when the administration was completed, hematological inspection, hematochemical inspection, urinalysis, anatomical finding, organ weight measurement and pathohistological inspection were performed.

[4] = 10 min after administration, N = 4
[5] = 30 min after administration, N = 4
[6] = 40 min after administration, N = 4
[7] = 50 min after administration, N = 4
[8] = 60 min after administration, N = 4
[9] = 250 mg/kg daily, oral, 14 consecutive days

T1 sequence (O70528 whole entry): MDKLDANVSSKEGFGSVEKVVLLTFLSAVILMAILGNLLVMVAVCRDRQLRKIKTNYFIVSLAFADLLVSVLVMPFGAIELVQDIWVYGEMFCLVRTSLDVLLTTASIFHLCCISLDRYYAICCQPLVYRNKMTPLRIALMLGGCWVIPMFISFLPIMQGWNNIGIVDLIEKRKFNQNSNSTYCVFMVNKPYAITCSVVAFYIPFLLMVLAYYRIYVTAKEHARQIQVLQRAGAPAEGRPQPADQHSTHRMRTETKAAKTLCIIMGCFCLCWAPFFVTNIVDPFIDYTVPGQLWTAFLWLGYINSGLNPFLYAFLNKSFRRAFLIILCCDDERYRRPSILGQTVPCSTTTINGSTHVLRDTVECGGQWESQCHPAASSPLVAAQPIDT

CC(C)n1c(=O)c(C(=O)N[C@H]2C[C@H]3CC[C@@H](C2)N3C)cc2ccccc21 [Compound 1, endo-N-(8-methyl-8-azabicyclo[3.2.1]oct-3-yl)-1-isopropyl-2(1H)-quinolone-3-carboxamide]
EC50 (serotonin 4 receptor): 21.4 nM
serotonin 4 receptor stimulating activity, comparison with Compounds 2 to 7 (serotonin 4 receptor; in words, from Table 2): much more potent serotonin 4 receptor stimulating activity than any of the other compounds
Contraction frequency (% of value prior to administration) (gastric motility; [4]): 182.3%
Motility index (% of value prior to administration) (gastric motility; [4]): 169.3%
Motility index (% of value prior to administration) (gastric motility; 20 min after administration, N = 4): 188.1%
Contraction frequency (% of value prior to administration) (gastric motility; 20 min after administration, N = 4, *: P < 0.05): 243.5%
Contraction frequency (% of value prior to administration) (gastric motility; [5]): 187.0%
Motility index (% of value prior to administration) (gastric motility; [5]): 144.2%
Contraction frequency (% of value prior to administration) (gastric motility; [6]): 134.7%
Motility index (% of value prior to administration) (gastric motility; [6]): 83.3%
Contraction frequency (% of value prior to administration) (gastric motility; [7]): 134.9%
Motility index (% of value prior to administration) (gastric motility; [7]): 88.8%
Contraction frequency (% of value prior to administration) (gastric motility; [8]): 141.6%
Motility index (% of value prior to administration) (gastric motility; [8]): 108.8%
effect on gastric motility (gastric motility; 1 mg/kg, i.p.): accelerated the gastric motility
Motility index (% of value prior to administration) ([1]; 0.3 mg/kg intravenous, 15 min, N = 3): 371.4%
Motility index (% of value prior to administration) ([1]; 0.3 mg/kg intravenous, 30 min, N = 3): 322.6%
Motility index (% of value prior to administration) ([1]; 0.3 mg/kg intravenous, 45 min, N = 3, *: P < 0.05): 282.3%
Motility index (% of value prior to administration) ([1]; 0.3 mg/kg intravenous, 60 min, N = 3, *: P < 0.05): 261.1%
Motility index (% of value prior to administration) ([1]; 0.3 mg/kg intravenous, 75 min, N = 3, **: P < 0.01): 281.9%
Motility index (% of value prior to administration) ([1]; 0.3 mg/kg intravenous, 90 min, N = 3, *: P < 0.05): 262.1%
Motility index (% of value prior to administration) ([1]; 0.3 mg/kg intravenous, 105 min, N = 3, *: P < 0.05): 242.9%
Motility index (% of value prior to administration) ([1]; 0.3 mg/kg intravenous, 120 min, N = 3): 195.2%
Motility index (% of value prior to administration) ([1]; 1 mg/kg oral, 15 min, N = 3): 116.4%
Motility index (% of value prior to administration) ([1]; 1 mg/kg oral, 30 min, N = 3): 193.5%
Motility index (% of value prior to administration) ([1]; 1 mg/kg oral, 45 min, N = 3, *: P < 0.05): 191.4%
Motility index (% of value prior to administration) ([1]; 1 mg/kg oral, 60 min, N = 3, **: P < 0.01): 206.9%
Motility index (% of value prior to administration) ([1]; 1 mg/kg oral, 75 min, N = 3, *: P < 0.05): 202.2%
Motility index (% of value prior to administration) ([1]; 1 mg/kg oral, 90 min, N = 3, *: P < 0.05): 192.5%
Motility index (% of value prior to administration) ([1]; 1 mg/kg oral, 105 min, N = 3, *: P < 0.05): 207.3%
Motility index (% of value prior to administration) ([1]; 1 mg/kg oral, 120 min, N = 3): 194.9%
Motility index (% of value prior to administration) ([1]; 1 mg/kg oral, 180 min, N = 3): 195.8%
Motility index (% of value prior to administration) ([1]; 1 mg/kg oral, 210 min, N = 3): 176.2%
Motility index (% of value prior to administration) ([1]; 1 mg/kg oral, 240 min, N = 3): 182.8%
effect on the motor action of the gastrointestinal tract ([1]; intravenous and oral, both during fasting period and after feeding): showed acceleration on the motor action of the gastrointestinal tract
effect on gastric emptying (gastric emptying; oral and subcutaneous): dose-dependently accelerated gastric emptying
Residual rate in stomach (%) (gastric emptying; p.o. 0.03 mg/kg, 5 cases): 67.3%
Residual rate in stomach (%) (gastric emptying; p.o. 0.3 mg/kg, 5 cases): 64.5%
Residual rate in stomach (%) (gastric emptying; p.o. 3.0 mg/kg, 6 cases): 42.0%
Residual rate in stomach (%) (gastric emptying; s.c. 0.1 mg/kg, 5 cases): 51.8%
Residual rate in stomach (%) (gastric emptying; s.c. 1.0 mg/kg, 5 cases): 50.3%
Residual rate in stomach (%) (gastric emptying; s.c. 10.0 mg/kg, 4 cases): 36.8%
minimum lethal dose [2]: more than 125 mg/kg
toxic change ([3]; 100 mg/kg daily, oral, 14 consecutive days): no toxic change was noted
body weight [3, 9]: prevention of body weight increase was noted
secondary changes in organs (liver, thymus, adrenogenital organ, adrenal, etc.) [3, 9]: secondary changes accompanied by aggravation of general conditions were observed in the liver, thymus, adrenogenital organ, adrenal, etc.
overall toxicity ([3]; 14-day oral, taking into account pharmacological activities): the toxicity is reasonably assumed to be weak
